US4241056A, “Penicillins and salts thereof” (Boehringer Ingelheim GmbH, priority 1978, dated 1980)
Where two headings read alike, the source gives them in different places.

Tests used:
[1] = system: Staphylococcus aureus SG 511; experiment: MIC, serial dilution test in the microtiter system; assay type: cell-based; conditions: SG511, 18 h, Staph. Aureus SG 511, 37° C., 18-20 hours
Experimental: (§1) The tests were performed according to the method of the serial dilution test in the microtiter system. The effect of the substances on bacteriostasis was examined in a fluid medium. The activity on bacteriostatis was examined at the following concentrations:
(§2) 10 gm of peptone, 8 gm of meat extract-oxoid, 3 gm of sodium chloride, 2 gm of sec. sodium phosphate were diluted with distilled water to 1000 ml (pH 7.2-7.4). Only in the test against streptococci 1% of glucose was added. The age of the primary cultures was about 20 hours. The standardizations of the pathogen suspension was effected by using a photometer according to "Eppendorf" (test tube diameter 14 mm, filter 546 nm) with the aid of the turbidity of a comparison suspension consisting of barium sulfate, this suspension being prepared by addition of 3.0 ml of 1% barium chloride solution to 97 ml of 1% sulfuric acid. After the standardization, streptococcus aronson were further diluted to a concentration of 1:15 and the other germs to a concentration of 1:1500 by menas of a sodium chloride solution.
(§3) 16 mg of the test substance were put into a 10 ml measuring flask and filled up to the mark with the solvent. The further dilution series was standardized with distilled water or the respective solvent.
(§4) The cavities of the microtiter plates were filled with 0.2 ml of nutrient medium. Then, 0.01 ml of the corresponding test substance dilution was added and inoculated with 0.01 ml of the standardized suspension. The bacteria were incubated at 37° C. for 18-20 hours. Control tests merely using the solvent were carried out simultaneously.
(§5) The measurement was carried out macroscopically to determine the minimal inhibitory (threshold) concentration, i.e. the lowest still bacteriostatically effective concentration.
(§6) Staphylococcus aureus SG 511, streptococcus aronson, streptococcus faecalis ATCC 10541, escherichia coli ATCC 9637, 11 775 and escherichia coli 12593/74 (β-lactamase carrier), pseudomonas aeruginosa hamburgensis and ATCC 10145, serratia marcescens ATCC 13 880, klebsiella pneumoniae ATCC 10 031 and 272 and proteus mirabilis hamburgensis.

[2] = system: escherichia coli 12593/74 (β-lactamase carrier); experiment: MIC, serial dilution test in the microtiter system; assay type: cell-based; conditions: 18 h, E. coli 12593/74 (β-lactamase carrier), 37° C., 18-20 hours
Experimental: as §1, §2, §3, §4, §5, §6

[3] = system: escherichia coli ATCC 11775; experiment: MIC, serial dilution test in the microtiter system; assay type: cell-based; conditions: ATCC11775, 18 h, E. coli ATCC 11775, 37° C., 18-20 hours
Experimental: as §1, §2, §3, §4, §5, §6

[4] = system: escherichia coli ATCC 9637; experiment: MIC, serial dilution test in the microtiter system; assay type: cell-based; conditions: ATCC9637, 18 h, E. coli ATCC 9637, 37° C., 18-20 hours
Experimental: as §1, §2, §3, §4, §5, §6

[5] = system: klebsiella pneumoniae 272; experiment: MIC, serial dilution test in the microtiter system; assay type: cell-based; conditions: 18 h, klebs pneum. 272, 37° C., 18-20 hours
Experimental: as §1, §2, §3, §4, §5, §6

[6] = system: klebsiella pneumoniae ATCC 10 031; experiment: MIC, serial dilution test in the microtiter system; assay type: cell-based; conditions: 18 h, klebs pneum ATCC 10031, 37° C., 18-20 hours
Experimental: as §1, §2, §3, §4, §5, §6

[7] = system: proteus mirabilis hamburgensis; experiment: MIC, serial dilution test in the microtiter system; assay type: cell-based; conditions: 18 h, prot. mirabilis, 37° C., 18-20 hours
Experimental: as §1, §2, §3, §4, §5, §6

[8] = system: pseudomonas aeruginosa ATCC 10145; experiment: MIC, serial dilution test in the microtiter system; assay type: cell-based; conditions: ATCC10145, 18 h, pseud. aerug. ATCC 10145, 37° C., 18-20 hours
Experimental: as §1, §2, §3, §4, §5, §6

[9] = system: pseudomonas aeruginosa hamburgensis; experiment: MIC, serial dilution test in the microtiter system; assay type: cell-based; conditions: 18 h, pseud. aerug. hamb., 37° C., 18-20 hours
Experimental: as §1, §2, §3, §4, §5, §6

[10] = system: serratia marcescens ATCC 13 880; experiment: MIC, serial dilution test in the microtiter system; assay type: cell-based; conditions: ATCC13, 18 h, serrat marcesc., 37° C., 18-20 hours
Experimental: as §1, §2, §3, §4, §5, §6

streptococcus aronson = experiment: MIC, serial dilution test in the microtiter system; assay type: cell-based; conditions: 18 h, strept. aronson, 1% glucose added, 37° C., 18-20 hours
Experimental: as §1, §2, §3, §4, §5, §6

[11] = system: streptococcus faecalis ATCC 10541; experiment: MIC, serial dilution test in the microtiter system; assay type: cell-based; conditions: Enterococcus faecalis, ATCC10541, 18 h; strept. faecal.; 37° C., 18-20 hours
Experimental: as §1, §2, §3, §4, §5, §6

E. coli ATCC 11775 [12] = experiment: Influence of the size of the inoculum on the MIC-values; assay type: cell-based; conditions: Escherichia coli
Experimental: (§7) For the penicillins C and H, which are typical representatives for this invention, the influence of the size of the inoculum on the MIC-values against ps. aerug. hamburg. and E. coli ATCC 11775 in the microtiter system was determined. Thereby 3 different sizes of inoculum (3.3×10^6, 3.3×10^4 and 3.3×10^2 in E. coli and 4.7×10^6, 4.7×10^4 and 4.7×10^2 in pseudomonas) were used. The reference system was again penicillin Q.

pseud. aerug. hamburg. = experiment: as above; assay type: cell-based; conditions: Pseudomonas aeruginosa
Experimental: as §7

[13] = Serum (blood) level in rats; assay type: in vivo; conditions: rat, average from 3 rats; for concentration at 0.5 h: 30 min.; for concentration at 1 h: 60 min.; for concentration at 2 h: 120 min.
Experimental: For the determination of the serum level in rats, typical representatives of the penicillins according to the invention were administered at a dosage of 10 mg/kg subcutaneously or 100 mg/kg per os to groups of 3 female FW 49 rats (weight 100 to 130 gm) each. Blood tests taken from the heart were worked up, and the obtained sera were tested by the cylinder test-agar diffusion method on plates with sarcina lutea ATCC 15957. The samples were compared with standard curves.

E. coli ATCC 11775 [14] = experiment: In vivo activity against experimental infection in mice; design: species or system mouse (NMRI); conditions: Escherichia coli, 168 h, 7 days observation, read-out: ED50 (dose at which 50% of the animals survived)
Experimental: (§8) A number of compounds of this invention were tested in vivo in mice against experimental infections. Bacteria E. coli ATCC 11775 and pseudomonas aeruginosa walter were used as pathogens. An intraperitoneal infection with 0.2 ml of a 5% mucin suspension of the bacteria was induced. This corresponds to about 2×10^6 germs E. coli and 8×10^5 germs pseudomonas/mouse. Female NMRI mice were divided into groups of 10 animals each, two control groups remained untreated, the remaining groups were treated with different doses of the respective penicillins for the determination of the ED50 (dose at which 50% of the animals survived). The groups with the E. coli infection were treated with the substance 3 times on the first day (1, 4 and 7 hours post-infectionem) and for 2 days thereafter twice a day. The groups with the pseudomonas infection were treated with the substance applied 6 times on the first day (1, 3, 6, 9, 12, and 15 hours post-infectionem) and for 2 days thereafter twice a day. The observation time was in both cases 7 days.

[15] = system: pseudomonas aeruginosa walter; experiment: as above; design: species or system mouse (NMRI); conditions: sc, 168 h, subcutaneous, 7 days observation, read-out: ED50 (dose at which 50% of the animals survived)
Experimental: as §8

Pseudomonas = conditions: in vivo as well as in vitro; cited from earlier work

Row | Structure (SMILES) | MIC [1] | MIC [2] | MIC [3] | MIC [4] | MIC [5] | MIC [6] | MIC [7] | MIC [8] | MIC [9] | MIC [10] | MIC (streptococcus aronson) | MIC [11] | concentration at 0.5 h ([13]; oral 100 mg/kg) | concentration at 1 h ([13]; oral 100 mg/kg) | concentration at 2 h ([13]; oral 100 mg/kg) | concentration at 0.5 h ([13]; sc, subcutaneous 10 mg/kg) | concentration at 1 h ([13]; sc, subcutaneous 10 mg/kg) | concentration at 2 h ([13]; sc, subcutaneous 10 mg/kg) | ED50 (E. coli ATCC 11775 [14]; ATCC11775, po, peroral) | ED50 (E. coli ATCC 11775 [14]; ATCC11775, sc, subcutaneous) | other results
1 | CC1(C)S[C@@H]2[C@H](NC(=O)[C@H](NC(=O)Nc3cnc(C4CC4)nc3O)c3ccc(O)cc3)C(=O)N2[C@H]1C(=O)O [C, D-α-[3-(2-cyclopropyl-4-hydroxy-5-pyrimidyl)-ureido]-p-hdroxybenzyl-penicillin sodium] | 0.3 µg/mL | 80 µg/mL | 1.25 µg/mL | 2.5 µg/mL | 80 µg/mL | 40 µg/mL | 1.25 µg/mL | 1.25 µg/mL | 2.5 µg/mL | 1.25 µg/mL | 0.08 µg/mL | 10 µg/mL | 3300 ng/mL | 4800 ng/mL | 1000 ng/mL | 5100 ng/mL | 6800 ng/mL | 400 ng/mL | 30 mg/kg | 1.5 mg/kg | MIC (E. coli ATCC 11775 [12]; ATCC11775, inoculum 3.3 × 10^2 germs/ml): 2.5 µg/mL; MIC (E. coli ATCC 11775 [12]; ATCC11775, inoculum 3.3 × 10^4 germs/ml): 2.5 µg/mL; MIC (E. coli ATCC 11775 [12]; ATCC11775, inoculum 3.3 × 10^6 germs/ml): 2.5 µg/mL; MIC (pseud. aerug. hamburg.; inoculum 4.7 × 10^2 germs/ml): 2.5 µg/mL; MIC (pseud. aerug. hamburg.; inoculum 4.7 × 10^4 germs/ml): 5 µg/mL; MIC (pseud. aerug. hamburg.; inoculum 4.7 × 10^6 germs/ml): > 80 µg/mL; ED50 [15]: 7 mg/kg
2 | CC1(C)S[C@@H]2[C@H](NC(=O)C(C(=O)O)c3ccccc3)C(=O)N2[C@H]1C(=O)O (stereo partly drawn) [Carbenicillin] | – | – | – | – | – | – | – | – | – | – | – | – | – | – | – | – | – | – | – | – | antipseudomonal activity (Pseudomonas): only a poor activity
3 | CC1(C)S[C@@H]2[C@H](NC(=O)[C@H](NC(=O)Nc3cncnc3O)c3ccc(O)cc3)C(=O)N2[C@H]1C(=O)O [Compound A, D-α-[3-(4-hydroxy-5-pyrimidyl)-ureido]-p-hydroxybenzylpenicillin sodium] | 0.3 µg/mL | > 80 µg/mL | 2.5 µg/mL | 2.5 µg/mL | 80 µg/mL | 80 µg/mL | 0.6 µg/mL | 2.5 µg/mL | 5 µg/mL | 5 µg/mL | 0.08 µg/mL | 10 µg/mL | 9100 ng/mL | 9600 ng/mL | 2900 ng/mL | 9300 ng/mL | 8600 ng/mL | 400 ng/mL | 50 mg/kg | 6 mg/kg | ED50 [15]: 50 mg/kg
4 | CC1(C)S[C@@H]2[C@H](NC(=O)[C@H](NC(=O)Nc3cnc(Cc4ccc(Cl)cc4)nc3O)c3ccc(O)cc3)C(=O)N2[C@H]1C(=O)O [D, D-α-[3-(2-p-chlorobenzyl-4-hydroxy-5-pyrimidyl)-ureido]-p-hydroxybenzyl-penicillin sodium] | 0.08 µg/mL | 80 µg/mL | 1.25 µg/mL | 2.5 µg/mL | 10 µg/mL | 5 µg/mL | 1.25 µg/mL | 2.5 µg/mL | 5 µg/mL | 1.25 µg/mL | 0.02 µg/mL | 10 µg/mL | – | 4100 ng/mL | 1000 ng/mL | – | 7100 ng/mL | 300 ng/mL | – | 9 mg/kg | –
